Key:
[1] = target: T1, LIMP-2 ectodomain (His6.hLIMP-2(aa35-430)) (Homo sapiens, UniProt Q14108); test: microscale thermophoresis; type: binding; conditions: 25 nM protein labelled with Red-tris-NTA; 300 mM NaAc pH 6.0, 150 mM NaCl, 0.05% Tween 20, 0.1% Fos-Choline 13; room temperature; read-out: EC50
T1 construct: gene SCARB2; luminal domain aa 35-430, N-terminal His6 tag (cloned after a protein A tag)
T1 sequence (Q14108 35-430): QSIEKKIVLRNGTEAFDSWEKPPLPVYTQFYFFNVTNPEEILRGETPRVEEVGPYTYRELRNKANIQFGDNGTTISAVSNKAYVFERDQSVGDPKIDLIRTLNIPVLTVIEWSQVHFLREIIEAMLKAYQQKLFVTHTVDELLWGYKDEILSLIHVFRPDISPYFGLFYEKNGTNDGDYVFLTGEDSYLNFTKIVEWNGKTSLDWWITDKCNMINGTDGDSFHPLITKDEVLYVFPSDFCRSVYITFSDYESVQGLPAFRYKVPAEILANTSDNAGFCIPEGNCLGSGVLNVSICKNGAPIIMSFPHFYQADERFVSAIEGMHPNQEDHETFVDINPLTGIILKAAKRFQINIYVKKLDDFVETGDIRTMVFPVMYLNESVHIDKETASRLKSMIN
Excerpt: microscale thermophoresis on LIMP-2 ectodomain (His6.hLIMP-2(aa35-430)) | direct interaction between purified, soluble His-tagged LIMP-2 protein labeled with Red-tris-NTA dye and cholesterol

[2] = target: T1, LIMP-2 ectodomain (His6.hLIMP-2(aa35-430)); test: UV crosslinking and click rhodamine, SDS-PAGE; type: binding; conditions: covalent; labelled compound; 50 µM probe, 12 h at 4 °C, UV 15 min

SMILES	Kd [1]	UV crosslinking and click rhodamine, SDS-PAGE [2]
CC(C)CCC[C@@H](C)[C@H]1CC[C@H]2[C@@H]3CC=C4C[C@@H](O)CC[C@]4(C)[C@H]3CC[C@]12C [cholesterol]	112 ± 32 nM	–
C#CCCCC1(CCCCCCCCC(=O)N[C@@H](CO)[C@H](O)/C=C/CCCCCCCCCCCCC)N=N1 [pacFA ceramide]	–	fatty acids, ceramide and sphingosine bound with lower affinity
C#CCCCC1(CCCCCCCCC(=O)O)N=N1 [pacFA]	–	fatty acids, ceramide and sphingosine bound with lower affinity
C#CCCCC1(CCCCCCCC/C=C/[C@@H](O)[C@@H](N)CO)N=N1 [photoclick sphingosine]	–	fatty acids, ceramide and sphingosine bound with lower affinity
